Consider 14 compounds from ChEMBL document CHEMBL1136158, “Effect of the acyl groups on O-->N acyl migration in the water-soluble prodrugs of HIV-1 protease inhibitor” (Bioorg Med Chem Lett, 2003).

Data set [1] can be described thus: Time required for 50% release of parent drug in phosphate buffered saline (PBS) at 37 degrees Centigrade. The class given is ADME. As to conditions: buffer.
The nature of data set [2]: Solubility ratio of prodrug versus parent drug. The class given is physicochemical.
The nature of data set [3]: Dissociation constant was determined. The data set is classed as physicochemical.

Values after ≈ are worked out from the molar mass of the structure shown. A value given as a limit tells only on which side of the number the result lay.

Broadly, the solubility is how much of the substance goes into solution per volume. Lower therefore signals a poorly soluble substance. Consider `CC(C)(C)NC(=O)[C@H]1N(C(=O)[C@@H](O)[C@H](Cc2ccccc2)NC(=O)OCc2ccccc2)CSC1(C)C`, for which the concentration in solution in the data set “physchem” (solubility) was 47 µg/mL (≈ 89.1 µM).
On the same count and under the same terms, with `CC(C)(C)NC(=O)[C@H]1N(C(=O)[C@@H](O)[C@H](Cc2ccccc2)NC(=O)c2ccc(Cl)cc2)CSC1(C)C` the figure was 28 µg/mL (≈ 52.6 µM).
In the data set “physchem”, `CC(C)(C)NC(=O)[C@H]1N(C(=O)[C@@H](O)[C@H](Cc2ccccc2)NC(=O)c2ccccc2)CSC1(C)C` had a solubility of 120 µg/mL (≈ 241 µM).
On the same count and under the same terms, with `CC(C)(C)NC(=O)[C@H]1N(C(=O)[C@@H](O)[C@H](Cc2ccccc2)NC(=O)c2ccc([N+](=O)[O-])cc2)CSC1(C)C` the figure was 57 µg/mL (≈ 105 µM).
As for `CC(C)(C)NC(=O)[C@H]1N(C(=O)[C@@H](OC(=O)c2ccc([N+](=O)[O-])cc2)[C@@H](N)Cc2ccccc2)CSC1(C)C.Cl`, the T1/2 in data set [1] is recorded as 2.6 min. In addition, the Solubility ratio in data set [2] turned out to be 228. Besides, the solubility in “physchem” was 13000 µg/mL.
For `Cc1cccc(C)c1OCC(=O)O[C@H](C(=O)N1CSC(C)(C)[C@H]1C(=O)NC(C)(C)C)[C@@H](N)Cc1ccccc1.Cl` the same measures were under 1 min, 8666 and 13000 µg/mL.
The pKa is the negative logarithm of the acid dissociation constant. A lower pKa goes with a group that gives up its proton readily. Consider `CC(C)(C)NC(=O)[C@H]1N(C(=O)[C@@H](OC(=O)OCc2ccccc2)[C@@H](N)Cc2ccccc2)CSC1(C)C.Cl`, for which the T1/2 in data set [1] is recorded as under 1 min. In addition, in data set [3], the pKa came out at 3.2. For the same compound, in data set [2], the Solubility ratio was 449. Besides, in the data set “physchem”, the concentration in solution (solubility) was 21000 µg/mL.
For the compound `CC(C)(C)NC(=O)[C@H]1N(C(=O)[C@@H](OC(=O)c2ccc(Cl)cc2)[C@@H](N)Cc2ccccc2)CSC1(C)C.Cl`, in data set [1], the T1/2 came to 16 min. In addition, the Solubility ratio in data set [2] was 154. The solubility in the data set “physchem” is 4300 µg/mL.
As to `CC(C)(C)NC(=O)[C@H]1N(C(=O)[C@@H](OC(=O)Cc2ccccc2)[C@@H](N)Cc2ccccc2)CSC1(C)C.Cl`, the T1/2 in data set [1] is 2.2 min. The compound also came in with a pKa in data set [3] of 4.31. Also, the Solubility ratio in data set [2] is 340. Besides, the concentration in solution in the data set “physchem” (solubility) was 33000 µg/mL.
For `CC(C)(C)NC(=O)[C@H]1N(C(=O)[C@@H](OC(=O)c2ccccc2)[C@@H](N)Cc2ccccc2)CSC1(C)C.Cl` the same measures were 30 min, 4.2, 125 and 15000 µg/mL.
`Cc1ccc(C(=O)O[C@H](C(=O)N2CSC(C)(C)[C@H]2C(=O)NC(C)(C)C)[C@@H](N)Cc2ccccc2)cc1.Cl`: the T1/2 in data set [1] came to 44 min. Further, the Solubility ratio in data set [2] is given as 155. In addition, in “physchem”, the solubility amounted to 6200 µg/mL.
For `COc1ccc(C(=O)O[C@H](C(=O)N2CSC(C)(C)[C@H]2C(=O)NC(C)(C)C)[C@@H](N)Cc2ccccc2)cc1.Cl` the same measures were 67 min, 211 and 16000 µg/mL.
The compound `CC(C)(C)NC(=O)[C@H]1N(C(=O)[C@@H](O)[C@H](Cc2ccccc2)NC(=O)Cc2ccccc2)CSC1(C)C` gave a solubility in “physchem” of 97 µg/mL (≈ 190 µM).
On the same count and under the same terms, with `COc1ccc(C(=O)N[C@@H](Cc2ccccc2)[C@H](O)C(=O)N2CSC(C)(C)[C@H]2C(=O)NC(C)(C)C)cc1` the figure was 76 µg/mL (≈ 144 µM).
